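Assay format: 96-well plates, 48-hour exposure. GI50: concentration for 50% inhibition of growth. TGI denotes the concentration required for complete inhibition of growth.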 Bounds are passed on as bounds.

Test systems include UACC-62 melanoma; BT-549 breast; NCI/ADR-RES ovarian; CCRF-CEM leukemia; HS 578T breast; PC-3 prostate; RXF 393 renal.
Common to all, as to test: inhibition of tumour cell growth, NCI panel, 48 h

For `CN1CCN(c2nc(NCCCCNc3ccnc4cc(Cl)ccc34)c3ccccc3n2)CC1`, the GI50 in the test on UACC-62 melanoma was 1.96 µM; in the test on BT-549 breast, 3.45 µM; with NCI/ADR-RES ovarian, 19 µM; with CCRF-CEM leukemia it was 2.62 µM; with HS 578T breast it was 5.48 µM; in the test on PC-3 prostate, 4.44 µM. Further, in the test with RXF 393 renal, the GI50 is 1.74 µM. The TGI in the test on UACC-62 melanoma was 3.9 µM; in the test with BT-549 breast, 15 µM; with NCI/ADR-RES ovarian, 56.1 µM; with CCRF-CEM leukemia, 93.9 µM; with HS 578T breast it was 26 µM; with PC-3 prostate, 17.6 µM. This molecule also gave a TGI with RXF 393 renal of 3.45 µM.
Turning to `COc1ccc(C(=O)/C=C/c2c(C(F)(F)F)nc3sccn23)cc1OC`, the GI50 in the test with UACC-62 melanoma is 4.85 µM; with BT-549 breast it was 3.25 µM; in the test with NCI/ADR-RES ovarian, 1.88 µM; with CCRF-CEM leukemia, 2.33 µM; in the test with HS 578T breast, 2.51 µM; in the test with PC-3 prostate, 5.39 µM. Moreover, in the test on RXF 393 renal, the GI50 was 2.51 µM. For the same molecule, the TGI was more than 100 µM in the test on UACC-62 melanoma; more than 100 µM in the test with BT-549 breast; 10.6 µM with NCI/ADR-RES ovarian; more than 100 µM with CCRF-CEM leukemia; 16.8 µM with HS 578T breast; more than 100 µM in the test on PC-3 prostate. Also, the TGI with RXF 393 renal is 29.8 µM.
On to `CN(CC(=O)O)c1ccc(/C=C/c2ccnc3ccccc23)cc1`, for which the TGI in the test on UACC-62 melanoma was 52.2 µM; in the test with BT-549 breast, 70.4 µM; with NCI/ADR-RES ovarian it was more than 100 µM; with CCRF-CEM leukemia it was 72.5 µM; in the test on HS 578T breast it was 75 µM; with PC-3 prostate it was more than 100 µM. The TGI with RXF 393 renal was determined as 49.8 µM.
Consider `C=CC1=C[C@@H]2[C@@H]3O[C@]4(CC[C@H](O4)[C@@H](C)C[C@@H](O)C3=O)C[C@H](O)C3=NCC[C@@]32CC1`, for which the GI50 in the test with UACC-62 melanoma, in the test on BT-549 breast, in the test on NCI/ADR-RES ovarian, with CCRF-CEM leukemia, with HS 578T breast and in the test with PC-3 prostate was less than 0.00333 µM throughout. In addition, the GI50 in the test on RXF 393 renal was less than 0.00333 µM. Also, the TGI in the test with UACC-62 melanoma is 0.00412 µM; with BT-549 breast it was less than 0.00333 µM; in the test with NCI/ADR-RES ovarian, 0.00511 µM; with CCRF-CEM leukemia, more than 33.3 µM; in the test with HS 578T breast, less than 0.00333 µM; in the test with PC-3 prostate, 0.0122 µM. Moreover, in the test on RXF 393 renal, the TGI was less than 0.00333 µM.
Take `CS(=O)(=O)c1ccc(-c2cnc(N)c(C(=O)Nc3ccccc3)n2)cc1`: the GI50 in the test on UACC-62 melanoma was more than 51.9 µM; in the test with BT-549 breast, 7.87 µM; in the test on NCI/ADR-RES ovarian, 22.6 µM; in the test on CCRF-CEM leukemia, 4 µM; in the test with HS 578T breast, more than 100 µM; in the test on PC-3 prostate, more than 100 µM. Besides, the GI50 with RXF 393 renal was 2.69 µM. Also, the TGI with UACC-62 melanoma is more than 100 µM; in the test on BT-549 breast, 40.8 µM; in the test with NCI/ADR-RES ovarian, more than 100 µM; with CCRF-CEM leukemia, more than 100 µM; with HS 578T breast it was more than 100 µM; in the test with PC-3 prostate, more than 100 µM. The same molecule returned a TGI in the test with RXF 393 renal of more than 50.1 µM.
Take `COC(=O)c1cc(-c2cc(OC)c(OC)c(OC)c2)[nH]c1N/N=C/c1c(Cl)cccc1Cl`: the GI50 in the test with UACC-62 melanoma is 1.47 µM; with BT-549 breast it was 2.74 µM; with NCI/ADR-RES ovarian it was 1.46 µM; in the test with CCRF-CEM leukemia, 14.1 µM; in the test on HS 578T breast it was 1.15 µM; in the test with PC-3 prostate, 0.893 µM. The GI50 in the test on RXF 393 renal was 7.45 µM. Moreover, the TGI is 16.2 µM in the test with UACC-62 melanoma; 16.3 µM in the test with BT-549 breast; 18.4 µM with NCI/ADR-RES ovarian; more than 100 µM with CCRF-CEM leukemia; more than 27 µM in the test with HS 578T breast; 31.4 µM in the test with RXF 393 renal.
With `NC(=O)c1oc([N+](=O)[O-])c(-c2ccccc2)c1-c1ccccc1`, the TGI with UACC-62 melanoma worked out at 21.3 µM; in the test with BT-549 breast, 40.6 µM; in the test with NCI/ADR-RES ovarian, 57.2 µM; in the test on CCRF-CEM leukemia it was 38.9 µM; in the test with HS 578T breast, 28.2 µM; in the test on PC-3 prostate, 47.9 µM. This molecule registered a TGI in the test on RXF 393 renal of more than 100 µM.
For the molecule `Cc1nc2cnc3cc(F)c(-c4ccc(Oc5ncccn5)cc4Cl)cc3c2n1[C@H]1CCN(C(=O)CO)C[C@@H]1F`, the GI50 with UACC-62 melanoma was 0.0134 µM; in the test with BT-549 breast, 7.51 µM; with NCI/ADR-RES ovarian, 8.38 µM; with CCRF-CEM leukemia, 1.69 µM; in the test on HS 578T breast it was 13.4 µM; with PC-3 prostate, 28.9 µM. Moreover, the GI50 in the test on RXF 393 renal is 2.02 µM. Moreover, the TGI is 0.0875 µM with UACC-62 melanoma; 23.1 µM in the test with BT-549 breast; 49 µM with NCI/ADR-RES ovarian; more than 76.8 µM with CCRF-CEM leukemia; 77.3 µM in the test with HS 578T breast; more than 100 µM with PC-3 prostate. This molecule registered a TGI in the test with RXF 393 renal of 10.9 µM.
`C=C1CC2(C[C@@H](c3ccccc3)O[C@@H](c3ccccc3)C2)OC1=O` (some centres not stated): the TGI came to 7.7 µM with UACC-62 melanoma; 4.24 µM in the test with BT-549 breast; 15.4 µM in the test on NCI/ADR-RES ovarian; 5.34 µM in the test on CCRF-CEM leukemia; 9.44 µM with HS 578T breast; 14.5 µM with PC-3 prostate. The TGI with RXF 393 renal came out at 3.55 µM.
For `CC1=CCC(OC(=O)C(C)(C)CCC(O)(C(=O)OC2(C(C)C)CCC3(C)OC3C2)C(C)C)(C(C)C)CC1` (configuration not stated), the GI50 in the test with UACC-62 melanoma is 0.298 µM; in the test with BT-549 breast, 0.696 µM; in the test on NCI/ADR-RES ovarian, 0.635 µM; in the test with CCRF-CEM leukemia, 0.132 µM; with HS 578T breast it was 0.735 µM; with PC-3 prostate, 0.281 µM. Further, the GI50 in the test with RXF 393 renal is 0.587 µM. The TGI is 1.11 µM in the test on UACC-62 melanoma; 1.51 µM in the test with BT-549 breast; 2.63 µM with NCI/ADR-RES ovarian; 50 µM in the test with CCRF-CEM leukemia; 3.57 µM with HS 578T breast; 0.987 µM in the test with PC-3 prostate. Further, the TGI with RXF 393 renal amounted to 1.25 µM.
Take `O=C1c2ccc3c4c5ccc(c24)C(=O)N1CCCOCCCCOCCCNCc1ccc(cc1)CNCCCOCCCCOCCCN(C3=O)C5=O`: the GI50 with UACC-62 melanoma was 0.889 µM; with BT-549 breast, 1.62 µM; in the test on NCI/ADR-RES ovarian it was 6.12 µM; in the test on CCRF-CEM leukemia it was 0.889 µM; in the test on HS 578T breast, 1.4 µM; in the test with PC-3 prostate, 0.904 µM. In addition, in the test with RXF 393 renal, the GI50 was 0.764 µM. Also, the TGI came out at 1.63 µM in the test on UACC-62 melanoma; 4.87 µM with BT-549 breast; 17.5 µM in the test on NCI/ADR-RES ovarian; 2.84 µM in the test on CCRF-CEM leukemia; 5.32 µM in the test with HS 578T breast; 2.76 µM in the test on PC-3 prostate. In the test with RXF 393 renal, this molecule returned a TGI of 1.57 µM.

For the origin of these results see PubChem BioAssay (NCI).
